Results reported in US20240360126A1, “PYRAZOLO[3,4-B]PYRIDINE COMPOUNDS FOR THE TREATMENT OF AUTOIMMUNE DISEASE” (Hoffmann-La Roche Inc., priority 2021, published 2024).

Test system: embryonic stem cells (D3) and 3T3 fibroblasts
Assay: mouse Embryonic Stem Cell Test (mEST)
Type: cell-based
Conditions: <0.5 negative, >0.6 positive
From the text: The in vitro mouse Embryonic Stem Cell Test (mEST) assay is an implemented routine assay at Roche. The original EST was developed by Horst Spielmann and his group in 1997 as an in vitro model for the screening of embryotoxicity, based on a blastocyst-derived permanent embryonic mouse ESC (mESC) D3 cell line derived from mouse 129 strains and was validated by European Centre for the Validation of Alternative Methods (ECVAM).
We further optimized and modified the approach allowing for the application of the assay to pharmaceutical compounds.
The cytotoxicity (inhibition of growth) of 3T3 fibroblasts, which represents differentiated cells and the cytotoxicity of undifferentiated embryonic stem cells (D3) after 10 days of substance treatment serve as two assay endpoints. This is determined by the use of dehydrogenase enzymes, which are present in the intact mitochondria of living cells to convert yellow soluble substrate 3-(4,5-dimethythiazol-2-yl)-2,5-diphenyl tetrazolium bromide (MTT) into a dark blue insoluble formazan product, which gets sequestered within the cells and is detected quantitatively using an absorbance reader (570 nm) after solubilizing the cell membrane.
The third endpoint is the inhibition of differentiation of ES cells into myocards which are cardiac muscle cells after 10 days of treatment. The beating of this cells is evaluated by microscopy. […]

Row | Predictive scores D12_3 | Compound
1 | 0.36 | Cc1cc(N2CC[C@H](c3ccc(N4CCOC[C@@H](N)C4)cn3)[C@@H](C)C2)c2cnn(C)c2n1 [Example 40, (6S)-4-[6-[(3R,4S)-1-(1,6-dimethylpyrazolo[3,4-b]pyridin-4-yl)-3-methyl-4-piperidyl]-3-pyridyl]-1,4-oxazepan-6-amine]
2 | 0.44 | Cc1cc(N2CC[C@@H](c3ncc(N4CCOC[C@@H](N)C4)cc3C)[C@H](C)C2)c2cnn(C)c2n1 [Example 28, (6S)-4-[6-[(3S,4R)-1-(1,6-dimethylpyrazolo[3,4-b]pyridin-4-yl)-3-methyl-4-piperidyl]-5-methyl-3-pyridyl]-1,4-oxazepan-6-amine]
